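Interpolation was linear, between the two tested concentrations surrounding the appropriate level; five concentrations were tested over 48 hours in 96-well plates. Here, GI50 denotes the concentration required for 50% inhibition of growth.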 Activity calls are given as the source filed them. Cut-off read from the data, not from the text of the source: active = GI50 up to about 1.1 µM and inactive = higher.
Tests used:
Assay in all cases: DTP human tumour cell line panel, 48 h
[1] = test system: PC-3
[2] = test system: SN12C
[3] = test system: SR
[4] = test system: SK-OV-3
[5] = test system: HCT-15
[6] = test system: CCRF-CEM
[7] = test system: HCT-116
[8] = test system: TK-10
[9] = test system: UO-31
[10] = test system: UACC-257
[11] = test system: SK-MEL-28
[12] = test system: SF-268
[13] = test system: MDA-MB-435
[14] = test system: CAKI-1
[15] = test system: NCI-H460
[16] = test system: Hs-578T
[17] = test system: HL-60
[18] = test system: T47D
[19] = test system: OVCAR-4

SMILES | GI50 [1] | GI50 [2] | GI50 [3] | GI50 [4] | GI50 [5] [µM] | GI50 [6] | GI50 [7] | GI50 [8] | GI50 [9] | GI50 [10] | GI50 [11] | GI50 [12] | GI50 [13] | GI50 [14] | GI50 [15] | GI50 [16] | GI50 [17] | GI50 [18] | GI50 [19]
Cc1ccc(-n2c(C)n[nH]c2=O)cc1 | > 100 µM (inactive) | > 100 µM (inactive) | > 100 µM (inactive) | > 100 µM (inactive) | > 100 | > 100 µM (inactive) | > 100 µM (inactive) | > 100 µM (inactive) | > 100 µM (inactive) | > 100 µM (inactive) | > 100 µM (inactive) | > 100 µM (inactive) | > 100 µM (inactive) |  |  |  |  |  | 
CC12C=CC(C)(C3C(=O)C4C(C(=O)C31)C1(C)C=CC4(C)[S+]1[O-])[S+]2[O-] (stereo unspecified) | > 100 µM (inactive) |  |  | > 100 µM (inactive) | 87.3 |  |  | > 100 µM (inactive) | > 100 µM (inactive) | 71.9 µM (inactive) |  | > 100 µM (inactive) |  | > 100 µM (inactive) | 53.1 µM (inactive) | > 100 µM (inactive) |  |  | 
OC1(c2ccccc2)CCN(Cc2c[nH]c3ccccc23)CC1 | > 100 µM (inactive) | > 100 µM (inactive) |  | > 100 µM (inactive) | 49.5 | > 100 µM (inactive) | 40.5 µM (inactive) | > 100 µM (inactive) | 31 µM (inactive) | 18.3 µM (inactive) | 20.7 µM (inactive) | > 100 µM (inactive) | 37.2 µM (inactive) | > 100 µM (inactive) | 49.1 µM (inactive) | > 100 µM (inactive) | 48.2 µM (inactive) | 35.6 µM (inactive) | > 100 µM (inactive)
CCC(C)Cn1c(C)nc2c1C(=O)c1ccccc1C2=O (stereo unspecified) |  | 36.1 µM (inactive) | 2.81 µM (inactive) | 54.3 µM (inactive) | 17.5 | 21.4 µM (inactive) | > 10 µM (inactive) | 41.4 µM (inactive) | 24.5 µM (inactive) | 23.5 µM (inactive) | 37.2 µM (inactive) | 23.9 µM (inactive) |  |  | 14.8 µM (inactive) |  | 5.06 µM (inactive) |  | 38 µM (inactive)
O=c1c2cc(Br)ccc2oc2ccc(Br)cc12 | > 100 µM (inactive) | > 100 µM (inactive) |  |  | > 100 | > 100 µM (inactive) | 82.2 µM (inactive) | > 100 µM (inactive) | > 100 µM (inactive) | > 100 µM (inactive) | > 100 µM (inactive) | > 100 µM (inactive) | > 100 µM (inactive) | > 100 µM (inactive) | > 100 µM (inactive) |  | > 100 µM (inactive) | 81.3 µM (inactive) | 46.3 µM (inactive)

— ChEMBL document CHEMBL1201862, “PubChem BioAssay data set” (2004)
